# How the values were obtained:
# [1] = target: T1, acid sphingomyelinase (ASM) (Homo sapiens, UniProt P17405); test: In vitro hASM assay; assay type: biochemical; conditions: 1 and 10 μM
# T1 construct: 1.3 nM purified human full-length ASM enzyme (purified in house); made in house
# T1 sequence (P17405 47-631): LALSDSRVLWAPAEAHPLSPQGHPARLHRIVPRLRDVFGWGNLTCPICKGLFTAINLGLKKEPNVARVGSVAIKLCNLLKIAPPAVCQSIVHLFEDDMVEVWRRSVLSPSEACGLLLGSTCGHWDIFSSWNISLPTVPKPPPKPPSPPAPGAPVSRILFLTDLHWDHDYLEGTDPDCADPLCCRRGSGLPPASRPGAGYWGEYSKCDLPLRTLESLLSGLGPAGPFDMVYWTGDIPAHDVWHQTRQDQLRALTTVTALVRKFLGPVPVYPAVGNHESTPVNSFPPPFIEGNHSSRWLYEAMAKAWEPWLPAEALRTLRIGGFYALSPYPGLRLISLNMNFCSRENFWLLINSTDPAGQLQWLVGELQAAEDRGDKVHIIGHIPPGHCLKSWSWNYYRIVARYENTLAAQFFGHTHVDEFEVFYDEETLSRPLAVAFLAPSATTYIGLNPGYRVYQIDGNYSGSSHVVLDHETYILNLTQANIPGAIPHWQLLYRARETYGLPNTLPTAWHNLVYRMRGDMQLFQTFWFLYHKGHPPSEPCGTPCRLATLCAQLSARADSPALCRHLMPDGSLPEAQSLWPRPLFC
# Protocol: hASM activity measurement was conducted using the fluorogenic substrate 6-hexadecanoylamino-4-methylumbelliferylphosphorylcholine (HMU-PC, Toronto Research Chemicals) at 0.5 μM and 1.3 nM purified human full-length ASM enzyme (purified in house) in a buffer containing 50 mM citrate, 150 mM NaCl, 5 mM ZnCl2, and 0.43 mM Triton X-100 at pH 4.7 in a final volume of 50 μL. The reaction mixtures were incubated for 45 min at rt and stopped by the addition of 150 μL of 1 M glycine at pH 12.5. The formation of the fluorescent product was monitored by a plate reader at excitation/emission wavelengths of 385/450 nm. The average hASM activity was calculated from two independent experiments, each performed in two technical replicates.
# [2] = Maximum tolerated dose (MTD) study in C57BL/6 mice; assay type: in vivo, mouse; conditions: i.p. dose escalation 20, 40, 80, 120 mg kg^–1 over 4 days
# Protocol: An MTD study was conducted on male C57BL/6 mice (15–19 g, 5 weeks old, SLAC Laboratory Animal Co. Ltd.). Animals were injected via intraperitoneal (i.p.) injection with single administration at 20 mg kg^–1 (N = 18, vehicle: 100% saline at 0.6 mg mL^–1) and multiple administrations for a duration of 4 days at 20 (N = 18, day 1), 40 (N = 18, day 2), 80 (N = 18, day 3), and 120 mg kg^–1 (N = 18, day 4). Clinical observations/samples of plasma, CSF, and brain were collected at 0.25, 0.5, 1, 4, 8, and 24 h. All procedures were performed in accordance with the Ethical Guidelines on the Protection of Animals Used for Scientific Purposes at the DMPK Group at Shanghai ChemPartner Co., Ltd.
# [3] = In vitro mouse plasma protein binding (equilibrium dialysis); assay type: in vitro ADME; conditions: read-out: Fp, u (%) plasma fraction unbounded
# Protocol: Studies were performed by the DMPK Group at Shanghai ChemPartner Co., Ltd., using the equilibrium dialysis method. Values are the mean of two technical replicates.
# AC = target: T2, AC (Homo sapiens, UniProt Q13510); test: EC50 determination in primary fibroblast cells from Krabbe's disease patients; assay type: cell-based; set-up: expressed in transfected cells
# T2 sequence (Q13510 22-395): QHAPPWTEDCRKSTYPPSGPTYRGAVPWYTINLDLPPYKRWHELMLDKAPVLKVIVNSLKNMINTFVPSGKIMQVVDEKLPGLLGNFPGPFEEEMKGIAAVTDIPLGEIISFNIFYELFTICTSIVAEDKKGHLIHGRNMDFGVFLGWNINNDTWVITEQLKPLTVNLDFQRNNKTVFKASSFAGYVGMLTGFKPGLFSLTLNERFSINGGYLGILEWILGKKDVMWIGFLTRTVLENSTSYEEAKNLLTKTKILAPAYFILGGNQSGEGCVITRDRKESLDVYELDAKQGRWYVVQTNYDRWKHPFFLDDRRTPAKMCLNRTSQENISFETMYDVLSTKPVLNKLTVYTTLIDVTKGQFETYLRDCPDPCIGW
# Protocol: Cells were plated in a 6-well plate. After 24 h, cells were treated with 22m at different concentrations for 2 h. Next, cells were washed with PBS, and cell pellets were washed, collected, and stored at −80 °C. Finally, cell pellets were lysed, and hAC activity in cell lysates was analyzed using the same biochemical fluorogenic assay as described for compound IC50 determination. Using this methodology, EC50 was determined to be 0.41 ± 0.1 μM. The EC50 value is a mean of two independent experiments, each performed in two technical replicates.
compound,measurement,setting,value
"CC(C)CNC(=O)n1c(=O)oc2cc(C3CCN(C)CC3)ccc21 [22m, N-Isobutyl-6-(1-methyl-4-piperidyl)-2-oxo-1,3-benzoxazole-3-carboxamide]",effect on activity of ASM,[1],no effect
same,clinical observations in MTD study,[2],no clinical abnormalities were observed
same,fraction unbound,[3],0.138
same,EC50,"AC; primary fibroblast cells from Krabbe's disease patients, 2 h incubation",410 ± 100 nM
same,EC50,"AC; primary fibroblast cells of Krabbe's patients, Figure S1",400 ± 100 nM
